Experimental data taken from ChEMBL document CHEMBL4316632, “Antiplasmodial Diterpenoids from Psiadia arguta” (J Nat Prod, 2019).

Tested on: Plasmodium falciparum
Assay: Antiplasmodial activity against Plasmodium falciparum 3D7 assessed as reduction in parasite viability incubated for 48 hrs by APAD colorimetric test
Assay type: functional, organism-based
Conditions: 3D7, 48 h

| SMILES | IC50 |
| --- | --- |
| CC(=O)OCC[C@@H](C)CC[C@@H]1[C@@]2(C)CCCC(C)(C)[C@@H]2CC[C@@]1(C)O | 33.2 µM |
| C[C@H](CCO)CC[C@@H]1[C@@]2(C)CCCC(C)(C)[C@@H]2CC[C@@]1(C)O [LABDANEDIOL] | 22.2 µM |
| CC(=O)OC/C=C(\C)CC[C@@H]1[C@@]2(C)CCCC(C)(C)[C@@H]2CC[C@@]1(C)O | 29.1 µM |
| C/C(=C\CO)CC[C@@H]1[C@@]2(C)CCCC(C)(C)[C@@H]2CC[C@@]1(C)O | 36.6 µM |
| C=C[C@](C)(O)CC[C@@H]1[C@@]2(C)CCCC(C)(C)[C@@H]2CC[C@@]1(C)O [SCLAREOL] | 35 µM |
| CC(CCOC=O)CC[C@@H]1[C@@]2(C)CCCC(C)(C)[C@@H]2CC[C@@]1(C)O (some centres undefined) | 73 µM |
| CCC(C)CC(=O)OCCC(C)CC[C@@H]1[C@@]2(C)CCCC(C)(C)[C@@H]2CC[C@@]1(C)O (some centres undefined) | 54.8 µM |
| CCC(C)C(=O)OCCC(C)CC[C@@H]1[C@@]2(C)CCCC(C)(C)[C@@H]2CC[C@@]1(C)O (some centres undefined) | 58 µM |
| CC(CCOC(=O)CC(C)CC[C@H]1[C@]2(C)CCCC(C)(C)[C@H]2CC[C@]1(C)O)CC[C@@H]1[C@@]2(C)CCCC(C)(C)[C@@H]2CC[C@@]1(C)O (some centres undefined) | > 50 µg/mL |
